Experimental data reported in patent US7582645B2, “Pyrimidine derivatives for treatment of hyperproliferative disorders” (Bayer Pharmaceuticals Corporation, priority 2003, dated 2009).
Where a name gives a salt, the structure may show the parent alone.

tested on: HCT116 cells; assay: HCT116 cytotoxic activity assay (Alamar Blue, 72 h); assay type: cell-based; settings: Homo sapiens, HCT-116, 72 h compound exposure, greater than 500 nM but less than or equal to 2 μM
Experimental: Representative compounds of this invention were tested for cytotoxicity using the above-described assay procedure with the following results: […]

SMILES | IC50
Nc1nc(Nc2ccc(Oc3c(F)cncc3F)cc2)cc(-c2ccccc2)n1 [Example 5, N^4-{4-[(3,5-difluoropyridin-4-yl)oxy]phenyl}-6-phenylpyrimidine-2,4-diamine] | 500 to 2000 nM
CNC(=O)c1cc(Oc2ccc(Nc3cc(-c4ccoc4)nc(N)n3)cc2)ccn1 [Example 10, 4-(4-{[2-amino-6-(3-furyl)pyrimidin-4-yl]amino}-phenoxy)-N-methylpyridine-2-carboxamide] | 500 to 2000 nM
Nc1nc(Nc2ccc(Oc3ccc(Cl)cc3)cc2)cc(-c2ccccc2)n1 [Example 12, N^4-[4-(4-chlorophenoxy)phenyl]-6-phenylpyrimidine-2,4-diamine] | 500 to 2000 nM
COCCNC(=O)c1cc(Oc2ccc(Nc3cc(-c4ccccc4)nc(N)n3)cc2)ccn1 [Example 23, 4-{4-[(2-amino-6-phenylpyrimidin-4-yl)amino]phenoxy}-N-(2-methoxyethyl)pyridine-2-carboxamide] | 500 to 2000 nM
CN1CCN(C(=O)c2cc(Oc3ccc(Nc4cc(-c5ccccc5)nc(N)n4)cc3)ccn2)CC1 [Example 26, N4*-[4-({2-[(4-methylpiperazin-1-yl)carbonyl]pyridin-4-yl}oxy)phenyl]-6-phenylpyrimidine-2,4-diamine trifluoroacetate] | 500 to 2000 nM
CCNc1nc(Nc2ccc(Oc3ccnc(C(F)(F)F)c3)cc2)cc(-c2cccc(OC)c2)n1 [Example 30, N^2-ethyl-6-(3-methoxy-phenyl)-N^4-[4-(2-trifluoromethyl-pyridin-4-yloxy)-phenyl]-pyrimidine-2,4-diamine] | 500 to 2000 nM
Nc1nc(Nc2ccc(Oc3ccnc(OCCN4CCOCC4)c3)cc2)cc(-c2ccccc2)n1 [Example 32, N^4-{4-[2-(2-morpholin-4-yl-ethoxy)-pyridin-4-yloxy]-phenyl}-6-phenyl-pyrimidine-2,4-diamine] | 500 to 2000 nM
Nc1nc(Nc2ccc(Oc3ccnc(CNC(=O)c4ccc(F)cc4)c3)cc2)cc(-c2ccccc2)n1 [Example 41, N-[(4-{4-[(2-amino-6-phenylpyrimidin-4-yl)amino]phenoxy}pyridin-2-yl)methyl]-4-fluorobenzamide] | 500 to 2000 nM
CCN(CC)C(=O)NCc1cc(Oc2ccc(Nc3cc(-c4ccccc4)nc(N)n3)cc2)ccn1 [Example 42, N′-[(4-{4-[(2-amino-6-phenylpyrimidin-4-yl)amino]phenoxy}pyridin-2-yl)methyl]-N,N-diethylurea] | 500 to 2000 nM
Nc1nc(Nc2ccc(Oc3ccnc(C4=NCCN4)c3)cc2)cc(-c2ccccc2)n1 [Example 47, N^4-{4-[2-(4,5-Dihydro-1H-imidazol-2-yl)pyridin-4-yloxy]phenyl}-6-phenylpyrimidine-2,4-diamine] | 500 to 2000 nM
CCOC(=O)c1cc(Oc2cncc(Cl)c2)ccc1Nc1cc(-c2ccccc2)nc(N)n1 [Example 60, ethyl 2-[(2-amino-6-phenylpyrimidin-4-yl)amino]-5-[(5-chloropyridin-3-yl)oxy]benzoate] | 500 to 2000 nM

same assay, conditions: Homo sapiens, HCT-116, 72 h compound exposure, greater than 2 μM

SMILES | IC50
COC[C@@H]1CCCN1c1ccnc(Oc2ccc(Nc3cc(-c4ccccc4)nc(N)n3)cc2)c1 [Example 43] | > 2000 nM
CC(C)NCc1cc(Oc2ccc(Nc3cc(-c4ccccc4)nc(N)n3)cc2)ccn1 [Example 44, N^4-[4-({2-[(isopropylamino)methyl]pyridin-4-yl}oxy)phenyl]-6-phenylpyrimidine-2,4-diamine] | > 2000 nM

same assay, conditions: Homo sapiens, HCT-116, 72 h compound exposure, less than or equal to 500 nM

SMILES | IC50
CCc1cc(Oc2ccc(Nc3cc(-c4ccccc4)nc(N)n3)cc2)ccn1 [Example 1, N^4-{4-[(2-ethylpyridin-4-yl)oxy]phenyl}-6-phenyl-pyrimidine-2,4-diamine] | ≤ 500 nM
Cc1cc(Oc2ccc(Nc3cc(-c4ccccc4)nc(N)n3)cc2)ccn1 [Example 2, N^4-{4-[(2-methylpyridin-4-yl)oxy]phenyl}-6-phenylpyrimidine-2,4-diamine] | ≤ 500 nM
NC(=O)c1cc(Oc2cccc(Nc3cc(-c4ccccc4)nc(N)n3)c2)ccn1 [Example 3, 4-{3-[(2-amino-6-phenylpyrimidin-4-yl)amino]phenoxy}pyridine-2-carboxamide] | ≤ 500 nM
CNC(=O)c1cc(Oc2cccc(Nc3cc(-c4ccccc4)nc(N)n3)c2)ccn1 [Example 4, 4-{3-[(2-amino-6-phenylpyrimidin-4-yl)amino]phenoxy}-N-methylpyridine-2-carboxamide] | ≤ 500 nM
N#Cc1cc(Oc2ccc(Nc3cc(-c4ccccc4)nc(N)n3)c(F)c2)ccn1 [Example 6, 4-{4-[(2-amino-6-phenylpyrimidin-4-yl)amino]-3-fluorophenoxy} pyridine-2-carbonitrile hydrochloride] | ≤ 500 nM
Cc1cc(Oc2ccc(Nc3cc(-c4ccccc4)nc(N)n3)cc2F)ccn1 [Example 7, N^4-{3-fluoro-4-[(2-methylpyridin-4-yl)oxy]phenyl}-6-phenylpyrimidine-2,4-diamine] | ≤ 500 nM
N#Cc1cc(Oc2ccc(Nc3cc(-c4ccccc4)nc(N)n3)cc2)ccn1 [Example 8, 4-{4-[(2-amino-6-phenylpyrimidin-4-yl)amino]phenoxy}pyridine-2-carbonitrile] | ≤ 500 nM
CNC(=O)c1cc(Oc2cccc(Nc3cc(-c4ccoc4)nc(N)n3)c2)ccn1 [Example 9, 4-(3-{[2-amino-6-(3-furyl)pyrimidin-4-yl]amino}phenoxy)-N-methylpyridine-2-carboxamide] | ≤ 500 nM
Nc1nc(Nc2ccc(Oc3ccc([N+](=O)[O-])cc3)cc2)cc(-c2ccccc2)n1 [Example 11, N^4-[4-(4-nitrophenoxy)phenyl]-6-phenylpyrimidine-2,4 diamine] | ≤ 500 nM
COc1ccc(Oc2ccc(Nc3cc(-c4ccccc4)nc(N)n3)cc2)cc1 [Example 13, N^4-[4-(4-methoxyphenoxy)phenyl]-6-phenylpyrimidine-2,4-diamine] | ≤ 500 nM
COC(=O)c1cc(Oc2ccc(Nc3cc(-c4ccccc4)nc(N)n3)cc2)ccn1 [Example 19, methyl 4-{4-[(2-amino-6-phenylpyrimidin-4-yl)amino]phenoxy}pyridine-2-carboxylate] | ≤ 500 nM
Nc1nc(Nc2ccc(Oc3ccnc(C(=O)N4CCOCC4)c3)cc2)cc(-c2ccccc2)n1 [Example 21, N^4-(4-{[2-(morpholin-4-ylcarbonyl)pyridin-4-yl]oxy}phenyl)-6-phenylpyrimidine-2,4-diamine] | ≤ 500 nM
Nc1nc(Nc2ccc(Cc3ccnc(C(F)(F)F)c3)cc2)cc(-c2ccccc2)n1 [Example 33, 6-phenyl-N^4-[4-(2-trifluoromethyl-pyridin-4-ylmethyl)-phenyl]-pyrimidin-2,4-diamine] | ≤ 500 nM
Nc1nc(Nc2ccc(Cc3ccnc(Cl)c3)cc2)cc(-c2ccccc2)n1 [Example 34, N4*-{4-[(2-chloropyridin-4-yl)methyl]phenyl}-6-phenylpyrimidine-2,4-diamine] | ≤ 500 nM
N#Cc1cc(Cc2ccc(Nc3cc(-c4ccccc4)nc(N)n3)cc2)ccn1 [Example 35, 4-[4-(2-amino-6-phenyl-pyrimidin-4-ylamino)-benzyl]-pyridine-2-carbonitrile] | ≤ 500 nM
Nc1nc(Nc2ccc(Oc3ccnc(C(F)(F)F)c3)cc2)cc(-c2ccccc2)n1 [Example 37, 6-phenyl-N^4-(4-{[2-(trifluoromethyl)pyridin-4-yl]oxy}phenyl)pyrimidine-2,4-diamine] | ≤ 500 nM
Nc1nc(Nc2ccc(Oc3cc[n+]([O-])c(C(F)(F)F)c3)cc2)cc(-c2ccccc2)n1 [Example 38, N^4-(4-{[1-oxido-2-(trifluoromethyl)pyridin-4-yl]oxy}phenyl)-6-phenylpyrimidine-2,4-diamine] | ≤ 500 nM
CS(=O)(=O)NCc1cc(Oc2ccc(Nc3cc(-c4ccccc4)nc(N)n3)cc2)ccn1 [Example 40, N-[(4-{4-[(2-amino-6-phenylpyrimidin-4-yl)amino]-phenoxy}pyridin-2-yl)methyl]methanesulfonamide] | ≤ 500 nM
Nc1nc(Nc2ccc(Oc3ccnc(C(=O)NCCO)c3)cc2)cc(-c2ccccc2)n1 [Example 45, 4-[4-(2-Amino-6-phenylpyrimidin-4-ylamino)phenoxy]pyridine-2-carboxylic acid (2-hydroxyethyl)amide] | ≤ 500 nM
Nc1nc(Nc2ccc(Oc3ccnc(-c4nnn[nH]4)c3)cc2)cc(-c2ccccc2)n1 [Example 46, 6-phenyl-N^4-{4-[2-(1H-tetrazol-5-yl)pyridin-4-yloxy]phenyl}pyrimidine-2,4-diamine] | ≤ 500 nM
Nc1nc(Nc2ccc(Oc3ccnc(Cl)c3)cc2)cc(-c2ccccc2)n1 [Example 48, N^4-[4-(2-Chloro-pyridin-4-yloxy)-phenyl]-6-phenyl-pyrimidine-2,4 diamine] | ≤ 500 nM
COC[C@@H]1CCCN1c1cc(Oc2ccc(Nc3cc(-c4ccccc4)nc(N)n3)cc2)ccn1 [Example 49, (S)—N^4-{4-[2-(2-Methoxymethylpyrrolidin-1-yl)pyridin-4-yloxy]phenyl}-6-phenylpyrimidine-2,4-diamine] | ≤ 500 nM
Nc1nc(Nc2ccc(Oc3ccnc(C(F)(F)F)c3)cc2)cc(-c2ccc(NC(=O)[C@@H](N)CO)cc2)n1 [Example 50, 2-amino-N-(4-{2-amino-6-[4-(2-trifluoromethylpyridin-4-yloxy)phenylamino]pyrimidin-4-yl}phenyl)-3-hydroxypropionamide] | ≤ 500 nM
Nc1nc(Nc2ccc(Oc3ccnc(C(F)(F)F)c3)cc2)cc(-c2ccc(O)cc2)n1 [Example 51, 4-{2-amino-6-[(4-{[2-(trifluoromethyl)pyridin-4-yl]oxy}phenyl)amino]pyrimidin-4-yl}phenol] | ≤ 500 nM
Nc1nc(Nc2ccc(Oc3ccnc(C(F)(F)F)c3)cc2)cc(-c2ccc(OS(N)(=O)=O)cc2)n1 [Example 52, sulfamic acid, 4-{2-amino-6-[4-(2-trifluoromethylpyridin-4-yloxy)phenylamino]pyrimidin-4-yl}phenyl ester] | ≤ 500 nM
Nc1cc(Oc2ccc(Nc3cc(-c4ccccc4)nc(N)n3)cc2)ccn1 [Example 53, N^4-[4-(2-aminopyridin-4-yloxy)phenyl]-6-phenylpyrimidine-2,4-diamine] | ≤ 500 nM
Nc1nc(Nc2ccc(Oc3ccnc(/C=C/CCO)c3)cc2)cc(-c2ccccc2)n1 [Example 58, (3E)-4-(4-{4-[(2-amino-6-phenylpyrimidin-4-yl)amino]phenoxy}pyridin-2-yl)but-3-en-1-ol] | ≤ 500 nM
